# Data from patent EP3840748B1, “SUBSTITUTED IMIDAZOLES FOR THE INHIBITION OF TGF-BETA AND METHODS OF TREATMENT” (Clavius Pharmaceuticals, LLC, priority 2018, dated 2020).
# Assays:
# TGFBR1 (ALK5) = biological target: T1, TGFBR1 (ALK5) (Homo sapiens, UniProt P36897); experiment: LanthaScreen Eu Kinase Binding Assay TGFBR1 (ALK5) (ThermoFisher SelectScreen); conditions: ALK5 5 nM, Tracer #178 5 nM, Eu-anti-GST antibody 2 nM, 1 hour at room temperature, 1% DMSO; read-out: TβRI (ALK5) Binding IC50
# T1 sequence (P36897 34-503): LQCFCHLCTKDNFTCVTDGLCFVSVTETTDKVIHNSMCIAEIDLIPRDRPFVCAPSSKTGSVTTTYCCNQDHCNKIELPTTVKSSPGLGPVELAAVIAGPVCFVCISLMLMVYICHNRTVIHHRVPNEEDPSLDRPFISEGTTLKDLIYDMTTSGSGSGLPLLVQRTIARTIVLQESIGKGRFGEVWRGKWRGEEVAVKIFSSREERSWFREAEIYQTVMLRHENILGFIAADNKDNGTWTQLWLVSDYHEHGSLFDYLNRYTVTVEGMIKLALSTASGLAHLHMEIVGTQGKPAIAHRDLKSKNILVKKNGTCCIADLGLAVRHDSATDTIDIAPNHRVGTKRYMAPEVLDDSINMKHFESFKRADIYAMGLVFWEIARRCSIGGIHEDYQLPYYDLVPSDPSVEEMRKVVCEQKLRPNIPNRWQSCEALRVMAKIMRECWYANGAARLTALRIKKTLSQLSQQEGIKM
# Source text: (§1) Table 2, below, describes the results of assays carried out on some compounds provided by the present disclosure. Exemplified compounds are confirmed to inhibit ALK5 activity in enzyme and cellular assays in the following assay systems conducted by ThermoFisher in Madison, WI according to their commercially available protocols.
# ThermoFisher SelectScreen™ Biochemical Kinase Profiling Service, LanthaScreen™Eu Kinase Binding Assay TGFBR1 (ALK5)
# Exemplified compounds are screened in 1% DMSO (final concentration) by 3-fold serial dilutions from 10,000 nM to 0.316 nM or at single concentrations of 10,000, 1000 and 100 nM according to the following protocol. To low volume, white 384-well plates (Greiner Cat#784207) add 160 nL 100x compound in 100% DMSO, 3.84 uL kinase buffer (50 mM HEPES, pH 7.5, 0.01% BRIJ-35, 10 mM MgCl2, 1 mM EGTA), 8 uL 2x kinase/antibody mixture in kinase buffer (final ALK5 concentration of 5 nM; final Eu-anti-GST antibody concentration of 2 nM), 4 uL 4x Tracer #178 in kinase buffer (final concentration of 5 nM). Gently shake the plates for 30 seconds and incubate at room temperature for 1 hour before reading fluorescence on a plate reader. Percent inhibition is determined compared to DMSO only control (maximal ALK5 tracer binding) and sigmoidal dose response curve fit yielded IC50 values as indicated in Table 2.
# [1] = test system: TGF-beta 1 stimulated SBE-bla HEK 293T; experiment: GeneBLAzer beta-lactamase (bla) reporter, TGF-beta 1 stimulated SBE-bla HEK 293T cell-based assay (ThermoFisher SelectScreen); conditions: Homo sapiens; SBE-bla HEK 293T cells; 30 minutes pre-incubation with inhibitor; TGF-beta 1 0.03 nM, 5 hours; inhibitor 10,000nM to 0.316nM; read-out: Cells (SBE_HEK293T) IC50
# Source text: as §1
# ThermoFisher SelectScreen™ Cell-based Pathway Profiling Service GeneBLAzer Beta-lactamase (bla) Reporter Technology - TGF-beta 1 stimulated SBE-bla HEK 293T Cell-based Assay
# SBE-bla HEK 293T cells are thawed and re-suspended in Assay Media (OPTI-MEM, 0.5% dialyzed FBS, 0.1 mM NEAA, 1 mM Sodium Pyruvate, 100 U/mL/100 µg/mL Pen/Strep) to a concentration of 625,000 cells/mL. 32 µL of cell suspension (20,000 cells) is added to each well of a 384-well Poly-D-Lysine assay plate. Cells in Assay Media are incubated for 16-24 hours in the plate at 37°C/5% CO2 in a humidified incubator. 4 µL of a 10X serial dilution of ALK5 inhibitors (10x = 100,000-3.16 nM) is added to appropriate wells of the plate and pre-incubated at 37°C/5% CO2 in a humidified incubator with cells for 30 minutes. Final concentration of inhibitor ranged from 10,000nM to 0.316nM. 4 µL of 10X TGF-beta 1 (final concentration of 0.03 nM) is added to wells containing the inhibitors. The plate is incubated for 5 hours at 37°C/5% CO2 in a humidified incubator. 8 µL of 1 µM Substrate Loading Solution is added to each well and the plate is incubated for 2 hours at room temperature before being read on a fluorescence plate reader. Percent inhibition is determined compared to DMSO only control (maximal TGF-beta 1 stimulation) and sigmoidal dose response curve fit yielded IC50 values as indicated in Table 2. TABLE 2: Biological activity assay results
IC50 (TGFBR1 (ALK5)),SMILES,IC50 [1]
0.09 µM,"Cn1cnc2ccc(-c3c(-c4ccn(CC(F)F)n4)nc4n3CCC4)cc2c1=O [Compound 50, 6-{3-[1-(2,2-Difluoroethyl)-1H-pyrazol-3-yl]-1,4-diazabicyclo[3.3.0]octa-2,4-dien-2-yl}-3-methyl-3H-quinazolin-4-one]",0.253 µM
0.066 µM,"CC(C)(O)c1cnc2ccc(-c3c(-c4ccn(C5CC5)n4)nc4n3CCC4)cn12 [Compound 75, 2-(6-(2-(1-Cyclopropyl-1H-pyrazol-3-yl)-6,7-dihydro-5H-pyrrolo[1,2-a]imidazol-3-yl)imidazo[1,2-a]pyridin-3-yl)propan-2-ol]",0.93 µM
0.129 µM,"CS(=O)(=O)c1ccc(-c2cc(-c3c(-c4ccn(C5CC5)n4)nc4n3CCC4)ccn2)cc1 [Compound 86, 2-(1-Cyclopropyl-1H-pyrazol-3-yl)-3-(2-(4-(methylsulfonyl)phenyl)pyridin-4-yl)-6,7-dihydro-5H-pyrrolo[1,2-a]imidazole]",1.4 µM
0.055 µM,"O=C(NC1CCOCC1)c1ccc(-c2cc(-c3c(-c4ccn(C5CC5)n4)nc4n3CCC4)ccn2)cc1 [Compound 88, 4-(4-(2-(1-Cyclopropyl-1H-pyrazol-3-yl)-6,7-dihydro-5H-pyrrolo[1,2-a]imidazol-3-yl)pyridin-2-yl)-N-(tetrahydro-2H-pyran-4-yl)benzamide]",0.988 µM
0.0025 µM,"Cn1cnc2ccc(-c3c(-c4ccn(C5CC5)n4)nc4sccn34)cc2c1=O [Compound 89, 6-{7-(1-Cyclopropyl-1H-pyrazol-3-yl)-4-thia-1,6-diazabicyclo[3.3.0]octa-2,5,7-trien-8-yl}-3-methyl-3H-quinazolin-4-one]",0.027 µM
0.0025 µM,"O=c1[nH]cnc2ccc(-c3c(-c4ccn(C5CC5)n4)nc4sccn34)cc12 [Compound 90, 6-{7-(1-Cyclopropyl-1H-pyrazol-3-yl)-4-thia-1,6-diazabicyclo[3.3.0]octa-2,5,7-trien-8-yl}-3H-quinazolin-4-one]",0.0356 µM
0.022 µM,"CC(C)n1ccc(-c2nc3sccn3c2-c2ccc3ncn(C)c(=O)c3c2)n1 [Compound 91, 6-(6-(1-Isopropyl-1H-pyrazol-3-yl)imidazo [2,1-b]thiazol-5-yl)-3-methylquinazolin-4(3H)-one]",1.1 µM
0.011 µM,"Oc1ncnc2ccc(-c3c(-c4ccn(C5CC5)n4)nc4n3CCC4)cc12 [Compound 92, 6-(2-(1-Cyclopropyl-1H-pyrazol-3-yl)-6,7-dihydro-5H-pyrrolo[1,2-a]imidazol-3-yl)quinazolin-4-ol]",0.057 µM
0.244 µM,"O=C(c1ccc(-c2cc(-c3c(-c4ccn(C5CC5)n4)nc4n3CCC4)ccn2)cc1)N1CCOCC1 [Compound 93, (4-(4-(2-(1-Cyclopropyl-1H-pyrazol-3-yl)-6,7-dihydro-5H-pyrrolo[1,2-a]imidazol-3-yl)pyridin-2-yl)phenyl)(morpholino)methanone]",
0.027 µM,"Cn1cnc2ccc(-c3c(-c4ccn(C5CCC5)n4)nc4n3CCC4)cc2c1=O [Compound 94, 6-(2-(1-Cyclobutyl-1H-pyrazol-3-yl)-6,7-dihydro-5H-pyrrolo[1,2-a]imidazol-3-yl)-3-methylquinazolin-4(3H)-one]",4.08 µM
0.0089 µM,"NC(=O)c1ncnc2ccc(-c3c(-c4ccn(C5CC5)n4)nc4n3CCC4)cc12 [Compound 95, 6-(2-(1-Cyclopropyl-1H-pyrazol-3-yl)-6,7-dihydro-5H-pyrrolo[1,2-a]imidazol-3-yl)quinazoline-4-carboxamide]",0.151 µM

# The next lines start with the compound.
SMILES,IC50 (TGFBR1 (ALK5)),IC50 [1]
"CC(C)n1ccc(-c2nc3n(c2-c2ccc4ncc(C(N)=O)n4c2)CCC3)n1 [Compound 7, 5-{3-(1-Isopropyl-1H-pyrazol-3-yl)-1,4-diazabicyclo[3.3.0]octa-2,4-dien-2-yl}-1,3a-diaza-3-indenecarboxamide]",0.0055 µM,0.248 µM
"NC(=O)c1cnc2ccc(-c3c(-c4ccn(C5CC5)n4)nc4n3CCC4)cn12 [Compound 8, 5-{3-(1-Cyclopropyl-1H-pyrazol-3-yl)-1,4-diazabicyclo[3.3.0]octa-2,4-dien-2-yl}-1,3a-diaza-3-indenecarboxamide]",0.0033 µM,0.084 µM
"Oc1ncnc2ccc(-c3c(-c4ccn(C5CC5)n4)nc4n3CCC4)cc12 [Compound 16, 6-{3-(1-Cyclopropyl-1H-pyrazol-3-yl)-1,4-diazabicyclo[3.3.0]octa-2,4-dien-2-yl}-3H-quinazolin-4-one]",0.0026 µM,0.117 µM
"Cn1cnc2ccc(-c3c(-c4ccn(C5CC5)n4)nc4n3CCC4)cc2c1=O [Compound 18, 6-{3-(1-Cyclopropyl-1H-pyrazol-3-yl)-1,4-diazabicyclo[3.3.0]octa-2,4-dien-2-yl}-3-methyl-3H-quinazolin-4-one]",0.0067 µM,0.069 µM
"Cn1cnc2ccc(-c3c(-c4ccn(C5CC5)n4)nc4n3CCN4)cc2c1=O [Compound 22, 6-{3-(1-Cyclopropyl-1H-pyrazol-3-yl)-1,4,6-triazabicyclo[3.3.0]octa-2,4-dien-2-yl}-3-methyl-3H-quinazolin-4-one]",0.0072 µM,0.0274 µM
"CC(C)n1ccc(-c2nc3occn3c2-c2ccc3nc[nH]c(=O)c3c2)n1 [Compound 23, 6-{7-(1-Isopropyl-1H-pyrazol-3-yl)-4-oxa-1,6-diazabicyclo[3.3.0]octa-2,5,7-trien-8-yl}-3H-quinazolin-4-one]",0.0052 µM,0.239 µM
"O=c1[nH]cnc2ccc(-c3c(-c4ccn(C5CC5)n4)nc4occn34)cc12 [Compound 24, 6-{7-(1-Cyclopropyl-1H-pyrazol-3-yl)-4-oxa-1,6-diazabicyclo[3.3.0]octa-2,5,7-trien-8-yl}-3H-quinazolin-4-one]",0.0018 µM,0.037 µM
"CC(C)n1ccc(-c2nc3occn3c2-c2ccc3ncn(C)c(=O)c3c2)n1 [Compound 25, 6-{7-(1-Isopropyl-1H-pyrazol-3-yl)-4-oxa-1,6-diazabicyclo[3.3.0]octa-2,5,7-trien-8-yl}-3-methyl-3H-quinazolin-4-one]",0.0072 µM,0.238 µM
"Cn1cnc2ccc(-c3c(-c4ccn(C5CC5)n4)nc4occn34)cc2c1=O [Compound 26, 6-{7-(1-Cyclopropyl-1H-pyrazol-3-yl)-4-oxa-1,6-diazabicyclo[3.3.0]octa-2,5,7-trien-8-yl}-3-methyl-3H-quinazolin-4-one]",0.0031 µM,0.0338 µM
"O=c1c2cc(-c3c(-c4ccn(C5CC5)n4)nc4n3CCC4)ccc2ncn1CCN1CCOCC1 [Compound 28, 6-{3-(1-Cyclopropyl-1H-pyrazol-3-yl)-1,4-diazabicyclo[3.3.0]octa-2,4-dien-2-yl}-3-(2-morpholinoethyl)-3H-quinazolin-4-one]",0.107 µM,
"O=c1[nH]cnc2ccc(-c3c(-c4ccn(CC(F)F)n4)nc4n3CCC4)cc12 [Compound 49, 6-{3-[1-(2,2-Difluoroethyl)-1H-pyrazol-3-yl]-1,4-diazabicyclo[3.3.0]octa-2,4-dien-2-yl}-3H-quinazolin-4-one]",0.052 µM,2.4 µM
